From patent US20180000778A1, “SMALL MOLECULE ANTAGONISTS OF DUSP5 AND METHODS OF USE” (THE MEDICAL COLLEGE OF WISCONSIN, INC., priority 2015, published 2018) come the findings set out here.

The target of assay [1] is T1, DUSP5 PD(C263S) (Homo sapiens, UniProt Q16690, C263S).
T1 construct: hexa-histidine (N); made in house; host or cells: E. coli BL21(DE3), M9 minimal media with 15NH4Cl
Put plainly: NMR binding assay, 2D 1H-15N HSQC titration. The conditions noted are these: pH 6.8; 250 μM RR505 or 500 μM CSD3-2320. How it is done: NMR samples of DUSP5 PD(C263 S) were prepared for 2D 1H-15N HSQC (heteronuclear single quantum coherence) spectral titration studies. The 15N-labeled DUSP5 PD(C263) protein was concentrated using an Amicon Ultra-4 centrifugal device (Millipore) to 600 μM.
NMR samples were prepared with the following conditions for RR505: ±250 μM RR505, 250 μM DUSP5 PD (C263S), 10% D20, 50 mM potassium phosphate, 100 mM KCl, and 2 mM DTT at pH 6.8.
NMR samples were prepared with the following conditions for CSD3-2320: ±500 μM CSD3-2320, 500 μM DUSP5 PD (C263S), 10% D20, 50 mM potassium phosphate, 100 mM KCl, and 2 mM DTT at pH 6.8. NMR experiments were performed on a 500 MHz Varian NMR System using a triple resonance probe with z-axis gradients at 25° C.

Assay [2] concerns the target T2, full-length DUSP5 (Homo sapiens, UniProt Q16690).
T2 construct: an assay was development using ERK2 and full-length DUSP5
T2 sequence (Q16690 1-384): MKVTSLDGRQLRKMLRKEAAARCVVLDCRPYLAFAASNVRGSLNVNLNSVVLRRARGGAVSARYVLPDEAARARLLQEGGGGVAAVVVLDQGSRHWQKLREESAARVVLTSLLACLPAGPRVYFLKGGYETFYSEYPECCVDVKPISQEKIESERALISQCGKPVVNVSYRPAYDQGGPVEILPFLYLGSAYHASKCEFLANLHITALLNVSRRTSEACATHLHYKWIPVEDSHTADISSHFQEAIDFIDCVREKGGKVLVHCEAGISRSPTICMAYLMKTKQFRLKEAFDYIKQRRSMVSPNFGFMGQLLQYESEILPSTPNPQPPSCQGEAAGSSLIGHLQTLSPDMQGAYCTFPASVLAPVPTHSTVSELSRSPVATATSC
In words: ERK dephosphorylation assay, full-length DUSP5 with pERK2 substrate, western blot. Type of assay: biochemical. How it is done: ERK Dephosphorylation Assay.
For this assay, 10 ng of GST-tagged recombinant phosphorylated ERK2 (R&D Systems, 1230-KS) was incubated with and without the indicated DUSP5 proteins (0.5 nM final concentration) for 15 min at room temperature, with or without the indicated drugs. The reactions were halted with 2× Laemmli sample buffer and subjected to SDS-PAGE. The proteins were transferred to polyvinylidene difluoride (PVDF) and immunoblotted using antibodies to pERK (Cell Signaling Tech., #9106) and Total ERK (Cell Signaling Tech., #9102). Bound antibodies were visualized using horseradish peroxidase-linked anti-mouse IgG (Cell Signaling Tech, #7076S) and anti-rabbit IgG (Cell Signaling Tech, #7074S), respectively, and ECL reagents (Pierce, 34708) according to the manufacturer's protocol. IC50s were calculated using GraphPad Prism 6 software.
And, the native substrate for DUSP5 is the pERK2 protein, which is much larger and capable of a more complicated range of inter-molecular interactions that the pNPP substrate (which is intended only to mimic the phospho-tyrosine of pERK). […] To this end, an assay was development using ERK2 and full-length DUSP5, monitoring pERK levels in a western blot, as a function of pERK2 substrate concentration. […] This surprising increase in potency for CSD3-2320 (but not NTS) with full length DUSP5 underscores the importance of performing secondary assays with biologically relevant forms of enzyme and substrate.
(A western blot detects proteins with antibodies after separation by electrophoresis.)

Structures are written as SMILES.

T1 sequence (Q16690 178-319 C263S limits assumed): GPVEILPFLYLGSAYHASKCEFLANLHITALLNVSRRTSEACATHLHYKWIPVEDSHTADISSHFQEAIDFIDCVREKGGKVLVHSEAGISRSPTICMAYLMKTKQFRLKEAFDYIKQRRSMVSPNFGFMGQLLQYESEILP

With `O=S(=O)([O-])c1ccc2[nH]c3c(S(=O)(=O)[O-])cc(S(=O)(=O)[O-])cc3c2c1.[Na+].[Na+].[Na+]` [RR505, Carbazole-1,3,6-trisulfonic acid, Trisodium Salt], the “binding by HSQC crosspeak changes” value in assay [1] was “direct binding”. In assay [2] (in vitro, western blot), the “activity in DUSP5:pERK assay, in words” value is “sub-micromolar range”.
Take `O=S(=O)(O)c1cc(O)c2c(S(=O)(=O)O)cccc2c1` [RR527]: the “binding by HSQC crosspeak changes” value in assay [1] was “direct binding”. Moreover, the “fold increase in IC50 activity compared to NTS” value in assay [2] (DUSP5/pERK assay) was 1,000 fold. The IC50 (commonly the point on the concentration scale where inhibition reaches its midpoint) in assay [2] (full-length DUSP5, pERK substrate) worked out at 0.538 ± 0.271 µM; in assay [2] (full-length DUSP5, pERK/ERK2 substrate) it was 33 µM.
